Each structure is given as a SMILES string. Where “and” joins values, the source holds several entries; their conditions need not be identical. Equal entries are not always repeated.

Data on 1 compound can be found in patent EP3511005A1, “COMPOUNDS FOR USE IN TREATING HUTCHINSON-GILFORD PROGERIA SYNDROME” (Technische Universität München, priority 2018, dated 2019).

Assay [1] concerns HGPS fibroblasts. Nature of the assay: Intracellular ATP measurement in HGPS fibroblasts. It counts as cell-based, human. Particulars: 0.25-1 µM, 4 or 9 days. How it is done: This assay relies in the properties of a proprietary thermostable luciferase which generates a stable luminescent signal that is proportional to the amount of ATP in the cells by catalyzing the mono-oxygenation of luciferin in the presence of Mg^2+, ATP and molecular oxygen.
This reagent is obtained by transferring 10 ml of CellTiter-Glo® Buffer into an amber bottle containing CellTiter-Glo® Substrate and then mixing it gently by vortexing. The plate was then mixed for 2 min in an orbital shaker to induce cell lysis and following that, it was incubated at room temperature for 10 min to stabilize the luminescent signal. Finally, luminescence was recorded in a FLUOstar Omega Microplate Reader (Omega BMG Labtech). Considering that the ATP level in mock-treated control fibroblasts is 100%, the ATP levels relative to mock-treated control fibroblasts were calculated for each condition.
Culture media without cells was used as a blank negative control to assure there is no interference with the luciferase reaction.

For assay [2], the system named is HGPS fibroblasts. Nature of the assay: Autophagy measurement in HGPS fibroblasts. Format: cell-based, human. Particulars: 0.25-1 µM, 4 or 9 days. How it is done:
This assay uses monodansylcadaverine (MDC), a fluorescent compound that is incorporated into multilamellar bodies by both an ion trapping mechanism and the interaction with membrane lipids, as a probe for the detection of autophagic vacuoles in cells.
The staining solution was prepared by diluting Cell-Based Monodansylcadaverine 1:1000 in Cell Based Assay Buffer. The assay buffer was prepared by dissolving a Cell-Based Assay Buffer Tablet in 100 ml of distilled water. The plate was then incubated at 37 °C for 10 min and centrifuged for 5 min at 1200 rpm. Next, the supernatant was removed, 100 µl of Cell-Based Assay Buffer was added to each well and the plate was again centrifuged in the same conditions. […] Considering that the autophagy level in mock-treated control fibroblasts is 100%, the level of autophagy relative to mock-treated control fibroblasts for each condition was determined (see Figure 5).
Cell-Based Tamoxifen (100 mM), a known inducer of autophagy, was used as a positive control. This compound was initially added to a control culture diluted 1:50.000 into the culture media. Cell Based Assay Buffer was used as a negative blank control.

Assay [3] relates to mouse fibroblasts from a progerin mouse model. In words: Autophagy measurement in mouse fibroblasts (monodansylcadaverine staining). Particulars: 3 µM.
Description: First, control and HGPS fibroblasts were harvested in the above mentioned conditions and, following trypsinization, the number of cells was counted with a CASY® Cell Counter (Roche). Afterwards, fibroblasts from each condition were seeded in triplicate in a 96 well plate with 32.000 cells/well in 100 µl of culture media with the appropriate drug concentration, and the plate was incubated at 37 °C for 8 h. After centrifuging the 96 well plate at 1200 rpm for 5 min, the culture media was aspirated from each well and 100 µl of staining solution was added. The staining solution was prepared by diluting Cell-Based Monodansylcadaverine 1:1000 in Cell Based Assay Buffer. The assay buffer was prepared by dissolving a Cell-Based Assay Buffer Tablet in 100 ml of distilled water. […] Lastly, after removing the supernatant, 100 µl of Cell-Based Assay Buffer was added to each well and the autophagic vacuole staining intensity was immediately detected in a FLUOstar Omega Microplate Reader (Omega BMG Labtech) using an excitation wavelength of 355 nm and an emission wavelength of 520 nm.
In assay [4] the test system is HGPS fibroblasts. Nature of the assay: Western blot analysis of progerin and lamin A/C levels in HGPS fibroblasts. It counts as cell-based, human. Conditions: HGPS cells. How it is done: Primary dermal fibroblasts from subjects with HGPS were obtained from the Progeria Research Foundation. Two different fibroblasts derived from HGPS patients carrying the LMNA mutation G608G were used: HGADFN003 (person) and HGADFN127 (person). Control dermal fibroblasts were obtained from the Coriell Institute for Medical Research (Camden, NJ). The following cell lines were used: GMO1651C and GMO3349C. All cells were maintained at -80 °C in 90% fetal bovine serum (FBS) and 10% dimethyl sulfoxide (DMSO). The Institutional Review Board of the Technische Universität München (TUM) approved the use of human cells established from skin biopsies from patients with HGPS and unaffected individuals in this study.
Control and HGPS fibroblasts were cultured at 37 °C and 5% CO2 in Dulbecco's Modified Eagle Media (DMEM) (Gibco by life technologies) containing 15% FBS (Gibco by life technologies), 1% L-glutamine (Gibco by life technologies), 1% penicillin/streptomycin (Gibco by life technologies), and 2 ml of gentamycin (Gibco by life technologies). Mock-treated and baricitinib-treated fibroblasts were cultured in parallel. […] Three times a week the cells were re-fed with new culture media.
(§1) A similar quantitative Western Blot analysis was carried out in wild-type mouse fibroblasts compared to fibroblasts obtained from the progerin mouse model (see Figure 17).
Subsequently, the cell suspension was centrifuged for 5 min at 1200 rpm, the supernatant was aspirated, and the cells were washed with 4.5 ml PBS (Sigma). These steps were performed thrice in order to assure that all culture media is removed. Then, the cells were transferred to Eppendorf tubes with 1 ml PBS (Sigma) and the tubes were centrifuged for 5 min at 1200 rpm. […]
(§2) The total protein concentration of each gel electrophoresis loading sample was determined by using a series of dilutions of known concentrations of bovine serum albumin (BSA) to obtain a standard curve. […] The total protein concentration of each gel electrophoresis loading sample was calculated based on this standard curve. […]

The test system of assay [5] is HGPS fibroblasts. Nature of the assay: 20S proteasome activity measurement in HGPS fibroblasts. It counts as cell-based, human. Particulars: 0.25-1 µM, 4 or 9 days. How it is done:
This assay uses a specific 20S substrate (SUC-LLVY-AMC) which, upon cleavage by the active enzyme, generates a fluorescent product that can be detected.
Next, the plate was again centrifuged in the same conditions, the supernatant was aspirated, and 100 µl of 20S Proteasome Lysis Buffer was added to each well. Then, the plate was incubated with gentle shaking for 30 min at room temperature to allow cell lysis and it was centrifuged at 1300 rpm for 7 min. Following centrifugation, 90 µl of the supernatant from each well was transferred to a new empty well together with 10 µl of substrate solution. The substrate solution was prepared by adding 25 µl of 20S Proteasome Substrate (SUC-LLVY-AMC) to 1 ml of 20S Proteasome Assay Buffer. […] Considering that the proteasomal activity in mock-treated control fibroblasts is 100%, the proteasomal activity relative to mock-treated control fibroblasts was calculated for each condition.
A Jurkat cell lysate supernatant which contains a high level of 20S activity was used as positive control (20S Proteasome Positive Control) and 20S Proteasome Assay Buffer was used as negative blank control.

The test system of assay [6] is mouse fibroblasts from a progerin mouse model. In words: Western blot analysis of progerin levels in mouse fibroblasts from progerin mouse model. Format: cell-based. Conditions: mouse progerin fibroblasts (LMNA G609G/G609G), 3 µM. The method, then:
as §1
Subsequently, the cell suspension was centrifuged for 5 min at 1200 rpm, the supernatant was aspirated, and the cells were washed with 4.5 ml PBS (Sigma). These steps were performed thrice in order to assure that all culture media is removed. Then, the cells were transferred to Eppendorf tubes with 1 ml PBS (Sigma) and the tubes were centrifuged for 5 min at 1200 rpm. After fully aspirating PBS, the cell pellets were obtained. Following the generation of cell pellets, the next action was the preparation of the gel electrophoresis loading samples. The first step was the addition of 100 µl per 10^7 cells of Laemmli Buffer-inhibitor mix to each Eppendorf tube to lyse the fibroblasts and denature the proteins of the lysate. […]
as §2

Assay [7] deals with HGPS fibroblasts. In words: Intracellular ROS measurement in HGPS fibroblasts. It counts as cell-based, human. Conditions: 0.25-1 µM, 4 or 9 days.
Excerpt: This assay uses 2',7'-dichlorofluorescein diacetate (DCFDA), a cell permeant reagent that after entering the cell is deacetylated by cellular esterases to a non-fluorescent compound that is later oxidized by ROS into 2',7'-dichlorofluorescein (DCF). DCF is highly fluorescent and can be detected by fluorescence spectroscopy.
First, control and HGPS fibroblasts were harvested in the above mentioned conditions and, following trypsinization, the number of cells was counted with a CASY® Cell Counter (Roche). The fibroblasts from each condition were seeded in triplicate in a 96 well plate with 32.000 cells/well in 100 µl of culture media with the appropriate drug concentration, and the plate was incubated at 37 °C for 8 h. After the incubation, the culture media was aspirated, 100 µl of 1 x Buffer were added to each well, and the plate was centrifuged at 1200 rpm for 5 min. […] Following the addition of 1x Buffer, fluorescence was measured immediately in a FLUOstar Omega Microplate Reader (Omega BMG Labtech) using an excitation wavelength of 485 nm and an emission wavelength of 535 nm. Considering that the ROS level in mock-treated control fibroblasts is 100%, the ROS levels relative to mock-treated control fibroblasts were calculated for each condition. […]
Assay [8] deals with control and progerin mouse cells. In words: Cell growth (proliferation) of mouse fibroblasts. Format: cell-based. Conditions: 3 µM. How it is done:
First, control and HGPS fibroblasts were cultured at 37 °C and 5% CO2 in culture media without drug. […] Then, each type of fibroblasts was seeded in triplicate with 150.000 cells/dish at the four different conditions. After 4 days and 9 days, the number of cells harvested in each condition was counted, also using a CASY® Cell Counter (Roche). The cumulative population doubling was determined using equation 5. Cumulative Population Doubling = 3,32 × log((cells harvested)/(cells seeded)) [formula]

Consider `CCS(=O)(=O)N1CC(CC#N)(n2cc(-c3ncnc4[nH]ccc34)cn2)C1` [baricitinib], for which the ATP levels entry in the assay on HGPS fibroblasts [1] is “increase”. Moreover, the autophagy activity entry in the assay with HGPS fibroblasts [2] is given as “increase”. Moreover, the levels of autophagy entry in assay [3] (both control and progerin mouse fibroblasts) is “increases”. Also, the “levels of autophagy increased” value in assay [3] (progerin mouse fibroblast relative to mock-treated control cells) stood at 39.9%. The “reduction of levels of progerin” value in the assay on HGPS fibroblasts [4] (4 days treatment with 1 µM, anti-progerin and anti-lamin A/C antibodies) is given as 15%. The progerin levels decreased in the assay on HGPS fibroblasts [4] (9 days treatment with 1 µM) amounted to 33%. Further, the “lamin A and lamin C levels” value with HGPS fibroblasts [4] (long-term treatment) is listed as “remained constant”. For the same compound, in the assay on HGPS fibroblasts [5], the proteasome activity result was “increase”. Also, the “levels of progerin decrease” value in assay [6] (day 4) is 18%; in assay [6] (day 9) it was 35% and 35.6%. Besides, the ROS levels result with HGPS fibroblasts [7] is reported as “decrease”. Moreover, the cell growth result in assay [8] is “ameliorate cell growth”.
